Laboratory results published in the NIST ThermoML archive (doi:10.1021/je300102d).
Numbers after ± are expanded uncertainties.

Assay: xn = mol fraction of the nth substance listed
Conditions: 101 kPa, Liquid; for viscosity: Concentric cylinders viscometry; for mass density: Vibrating tube method

C1CNCCN1 [piperazine] + O
Conditions | mass density, x1 = 0.00181 [kg/m3] | mass density, x1 = 0.00367 [kg/m3] | mass density, x1 = 0.00741 [kg/m3] | mass density, x1 = 0.01119 [kg/m3] | mass density, x1 = 0.01938 [kg/m3] | viscosity, x1 = 0.000906 [mPa·s] | viscosity, x1 = 0.00182 [mPa·s] | viscosity, x1 = 0.00366 [mPa·s] | viscosity, x1 = 0.00553 [mPa·s] | viscosity, x1 = 0.00742 [mPa·s]
283.15 K | 1000.15 ± 0.2 | 1000.51 ± 0.2 | 1001.34 ± 0.2 | 1002.24 ± 0.2 | 1004.7 ± 0.2 | 1.33 ± 0.054 | 1.362 ± 0.055 | 1.393 ± 0.056 | 1.462 ± 0.059 | 1.533 ± 0.062
293.15 K | 998.63 ± 0.2 | 998.98 ± 0.2 | 999.75 ± 0.2 | 1000.58 ± 0.2 | 1002.52 ± 0.2 | 1.012 ± 0.041 | 1.043 ± 0.042 | 1.092 ± 0.044 | 1.119 ± 0.045 | 1.174 ± 0.048
303.15 K | 996.1 ± 0.2 | 996.42 ± 0.2 | 997.15 ± 0.2 | 997.91 ± 0.2 | 999.69 ± 0.2 | 0.8241 ± 0.034 | 0.8339 ± 0.034 | 0.8791 ± 0.036 | 0.8894 ± 0.036 | 0.9414 ± 0.038
313.15 K | 992.66 ± 0.2 | 992.99 ± 0.2 | 993.68 ± 0.2 | 994.37 ± 0.2 | 996.04 ± 0.2 | 0.6757 ± 0.028 | 0.6868 ± 0.028 | 0.7176 ± 0.029 | 0.7531 ± 0.031 | 0.78 ± 0.032
323.15 K | 988.51 ± 0.2 | 988.81 ± 0.2 | 989.47 ± 0.2 | 990.14 ± 0.2 | 991.64 ± 0.2 | 0.5816 ± 0.024 | 0.5923 ± 0.024 | 0.621 ± 0.025 | 0.6448 ± 0.026 | 0.6604 ± 0.027

N [ammonia] + O
Conditions | mass density, x1 = 0.0268 [kg/m3] | mass density, x1 = 0.0505 [kg/m3] | mass density, x1 = 0.1124 [kg/m3] | mass density, x1 = 0.148 [kg/m3] | mass density, x1 = 0.3043 [kg/m3] | viscosity, x1 = 0.0111 [mPa·s] | viscosity, x1 = 0.0262 [mPa·s] | viscosity, x1 = 0.0279 [mPa·s] | viscosity, x1 = 0.1147 [mPa·s] | viscosity, x1 = 0.176 [mPa·s]
283.15 K | 988.73 ± 0.2 | 979.82 ± 0.2 | 957.85 ± 0.2 | 944.97 ± 0.21 | 895.9 ± 0.22 | 1.313 ± 0.053 | 1.428 ± 0.058 | 1.352 ± 0.055 | 1.559 ± 0.063 | 1.713 ± 0.069
293.15 K | 986.79 ± 0.2 | 977.5 ± 0.2 | 954.52 ± 0.2 | 941.01 ± 0.21 | 889.82 ± 0.22 | 1.025 ± 0.042 | 1.074 ± 0.043 | 1.046 ± 0.042 | 1.157 ± 0.047 | 1.289 ± 0.052
303.15 K | 983.98 ± 0.2 | 974.43 ± 0.2 | 950.65 ± 0.2 | 936.67 ± 0.21 | – | 0.8106 ± 0.033 | 0.845 ± 0.034 | 0.8278 ± 0.034 | 0.9025 ± 0.037 | 0.9955 ± 0.04
313.15 K | 980.32 ± 0.2 | 970.59 ± 0.2 | 946.14 ± 0.2 | 931.7 ± 0.21 | – | 0.672 ± 0.027 | 0.7124 ± 0.029 | 0.6922 ± 0.028 | 0.7653 ± 0.031 | 0.8467 ± 0.034
323.15 K | 975.98 ± 0.2 | 966.09 ± 0.2 | 940.98 ± 0.2 | 926.12 ± 0.21 | – | 0.5645 ± 0.023 | 0.5945 ± 0.024 | 0.5795 ± 0.024 | 0.6297 ± 0.026 | 0.6829 ± 0.028

O [water] + C1CNCCN1
x2 = 0
Conditions | mass density [kg/m3] | viscosity [mPa·s]
283.15 K | 999.7 ± 0.2 | 1.307 ± 0.053
293.15 K | – | 1.002 ± 0.041
303.15 K | – | 0.7977 ± 0.032
313.15 K | – | 0.6532 ± 0.027
323.15 K | 988.04 ± 0.2 | 0.547 ± 0.023

O [water] + N
x2 = 0
Conditions | mass density [kg/m3] | viscosity [mPa·s]
283.15 K | 999.7 ± 0.2 | 1.307 ± 0.053
293.15 K | – | 1.002 ± 0.041
303.15 K | – | 0.7977 ± 0.032
313.15 K | – | 0.6532 ± 0.027
323.15 K | 988.04 ± 0.2 | 0.547 ± 0.023
